Reference: the supplement of paper PMC10307832

Key:
Assay in all cases: relative viability (nuclei count vs DMSO), 5 days (fraction); higher = more cells survive
[1] = compound: COc1cc(-c2nn([C@H]3CC[C@H](N4CCN(C(C)=O)CC4)CC3)c3ncnc(N)c23)ccc1NC(=O)c1cc2ccccc2n1C + N=C(N)NC(=N)NCCc1ccccc1 [Phenformin] (partner 250 µM)
Outline: (§1)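 One day after seeding in 1536-well plates, lung cancer cell lines were dosed by pin tool. Dosing was either single-drug or a fixed anchor-drug dose plus five library-drug doses (not always all listed) in √10 steps. After 5 days, nuclei were stained in one fix-and-stain step and counted on 4× images, and relative viability is the nuclei count of treated wells over that of vehicle wells, given as the median of duplicate plates.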

[2] = compound: COc1cc(-c2nn([C@H]3CC[C@H](N4CCN(C(C)=O)CC4)CC3)c3ncnc(N)c23)ccc1NC(=O)c1cc2ccccc2n1C + CC(=O)c1c(C)c2cnc(Nc3ccc(N4CCNCC4)cn3)nc2n(C2CCCC2)c1=O [Palbociclib] (partner 0.5 µM)
Outline: as §1

Midostaurin + Vorinostat = compound: CO[C@@H]1[C@H](N(C)C(=O)c2ccccc2)C[C@H]2O[C@]1(C)n1c3ccccc3c3c4c(c5c6ccccc6n2c5c31)C(=O)NC4 [Midostaurin] + O=C(CCCCCCC(=O)Nc1ccccc1)NO [Vorinostat] (partner 1 µM)
Outline: as §1

[3] = compound: COc1cc(-c2nn([C@H]3CC[C@H](N4CCN(C(C)=O)CC4)CC3)c3ncnc(N)c23)ccc1NC(=O)c1cc2ccccc2n1C + Cc1nc(Nc2ncc(C(=O)Nc3c(C)cccc3Cl)s2)cc(N2CCN(CCO)CC2)n1 [Dasatinib] (partner 0.075 µM)
Outline: as §1

Midostaurin + Lapatinib = compound: CO[C@@H]1[C@H](N(C)C(=O)c2ccccc2)C[C@H]2O[C@]1(C)n1c3ccccc3c3c4c(c5c6ccccc6n2c5c31)C(=O)NC4 [Midostaurin] + CS(=O)(=O)CCNCc1ccc(-c2ccc3ncnc(Nc4ccc(OCc5cccc(F)c5)c(Cl)c4)c3c2)o1 [Lapatinib] (partner 2 µM)
Outline: as §1

Cell Line | relative viability ([1]; first compound 0.0128 µM) | relative viability ([1]; first compound 0.04048 µM) | relative viability ([1]; first compound 0.128 µM) | relative viability ([1]; first compound 1.28 µM) | relative viability ([2]; first compound 0.0128 µM) | relative viability ([2]; first compound 0.04048 µM) | relative viability ([2]; first compound 0.128 µM) | relative viability ([2]; first compound 1.28 µM) | relative viability (Midostaurin + Vorinostat; first compound 0.01 µM) | relative viability (Midostaurin + Vorinostat; first compound 0.03162 µM) | relative viability (Midostaurin + Vorinostat; first compound 0.1 µM) | relative viability (Midostaurin + Vorinostat; first compound 0.3162 µM) | relative viability ([3]; first compound 0.0128 µM) | relative viability ([3]; first compound 0.04048 µM) | relative viability ([3]; first compound 0.128 µM) | relative viability ([3]; first compound 1.28 µM) | relative viability (Midostaurin + Lapatinib; first compound 0.01 µM) | relative viability (Midostaurin + Lapatinib; first compound 0.03162 µM) | relative viability (Midostaurin + Lapatinib; first compound 0.1 µM) | relative viability (Midostaurin + Lapatinib; first compound 0.3162 µM)
NCI-H2009 | 0.517 | 0.433 | 0.511 | 0.515 | 0.172 | 0.148 | 0.219 | 0.179 | 0.808 | 0.745 | 0.703 | 0.657 | 0.298 | 0.267 | 0.31 | 0.382 | 0.811 | 0.823 | 0.902 | 0.861
HCC-15 | 0.525 | 0.447 | 0.476 | 0.42 | 0.555 | 0.663 | 0.839 | 0.705 | 0.942 | 0.806 | 0.785 | 0.765 | 0.638 | 0.593 | 0.684 | 0.731 | 0.85 | 0.776 | 0.692 | 0.921
COR-L23 | 0.424 | 0.559 | 0.413 | 0.434 | 0.324 | 0.253 | 0.313 | 0.24 | 0.456 | 0.311 | 0.276 | 0.205 | 0.503 | 0.529 | 0.462 | 0.665 | 0.922 | 1.1 | 0.835 | 0.855
HCC-78 | 0.734 | 0.789 | 0.601 | 0.37 | 0.479 | 0.433 | 0.465 | 0.381 | 0.545 | 0.438 | 0.365 | 0.312 | 0.375 | 0.401 | 0.234 | 0.24 | 0.805 | 0.697 | 0.721 | 0.316
NCI-H727 | 0.559 |  | 0.495 | 0.619 | 0.615 |  | 0.553 | 0.583 | 1.4 | 1.11 | 1.16 | 1.26 | 0.322 |  | 0.296 | 0.381 | 1.02 | 0.739 | 0.91 | 0.728
NCI-H2087 | 0.505 |  | 0.529 | 0.462 | 0.244 |  | 0.237 | 0.222 | 0.56 | 0.528 | 0.462 | 0.429 | 1.11 |  | 0.733 | 0.857 | 1.09 | 0.889 | 1.02 | 1.4
BEN | 0.235 | 0.272 | 0.276 | 0.218 | 0.485 | 0.466 | 0.435 | 0.457 | 0.594 | 0.552 | 0.707 | 0.598 | 0.251 | 0.32 | 0.351 | 0.318 | 0.718 | 0.719 | 0.777 | 0.815
EKVX | 0.234 | 0.245 | 0.211 | 0.199 | 0.383 | 0.47 | 0.357 | 0.271 | 0.735 | 0.714 | 0.808 | 0.583 | 0.859 | 0.611 | 0.505 | 0.385 | 0.214 | 0.127 | 0.242 | 0.212
LXF-289 | 0.545 | 0.497 | 0.492 | 0.46 | 0.673 | 0.648 | 0.549 | 0.706 | 0.772 | 0.734 | 0.756 | 0.689 | 0.291 | 0.314 | 0.237 | 0.227 | 0.92 | 0.888 | 0.866 | 0.951
ABC-1 | 0.231 | 0.245 | 0.225 | 0.243 | 0.646 | 0.84 | 0.391 | 0.469 | 1.23 | 1.37 | 1.08 | 0.996 | 0.613 | 0.505 | 0.542 | 0.688 | 1.05 | 1.29 | 1 | 1.17
NCI-H650 | 0.519 | 0.593 | 0.459 | 0.462 | 0.35 | 0.385 | 0.3 | 0.339 | 0.431 | 0.474 | 0.875 | 0.412 | 0.475 | 0.592 | 0.462 | 0.456 | 0.838 | 0.988 | 0.582 | 0.687
NCI-H1650 | 0.41 | 0.57 | 0.435 | 0.479 | 0.342 | 0.409 | 0.306 | 0.268 | 0.57 | 0.606 | 0.585 | 0.793 | 0.265 | 0.304 | 0.32 | 0.29 | 0.757 | 0.791 | 0.878 | 0.581
NCI-H2085 | 0.756 | 0.655 | 0.781 | 0.654 | 0.491 | 0.48 | 0.455 | 0.441 | 0.79 | 0.783 | 0.822 | 0.637 | 0.237 | 0.246 | 0.249 | 0.219 | 0.759 | 0.857 | 0.823 | 0.639
NCI-H1793 | 0.388 | 0.252 | 0.317 | 0.289 | 0.367 | 0.342 | 0.261 | 0.239 | 0.766 | 0.789 | 0.854 | 0.296 | 0.392 | 0.35 | 0.401 | 0.346 | 0.971 | 0.715 | 0.767 | 0.75
LC-2-ad | 0.642 | 0.552 | 0.593 | 0.503 | 0.543 | 0.508 | 0.502 | 0.511 | 0.692 | 0.644 | 0.775 | 0.459 | 0.633 | 0.25 | 0.622 | 0.369 | 0.989 | 0.956 | 0.982 | 0.855
COR-L 105 | 0.474 | 0.58 | 0.4 | 0.232 | 0.388 | 0.474 | 0.4 | 0.302 | 0.899 | 0.846 | 0.702 | 0.535 | 0.323 | 0.448 | 0.287 | 0.362 | 0.364 | 0.395 | 0.357 | 0.344
